Results taken from US10414774B2, “Compound useful for altering the levels of bile acids for the treatment of diabetes and cardiometabolc disease” (Merck Sharp & Dohme Corp., priority 2016, dated 2019).

The compounds below were run against T1, Human CYP8B1 (Homo sapiens, UniProt Q9UNU6) (assay: Human CYP8B1 Liver Microsome Assay). Settings: Human CYP8B1 IC50, human liver microsomes; substrate 7a-hydroxy-4-cholesten-3-one, NADPH; RapidFire MS detection of 7α,12α-dihydroxy-4-cholesten-3-one.
T1 sequence (Q9UNU6 1-501): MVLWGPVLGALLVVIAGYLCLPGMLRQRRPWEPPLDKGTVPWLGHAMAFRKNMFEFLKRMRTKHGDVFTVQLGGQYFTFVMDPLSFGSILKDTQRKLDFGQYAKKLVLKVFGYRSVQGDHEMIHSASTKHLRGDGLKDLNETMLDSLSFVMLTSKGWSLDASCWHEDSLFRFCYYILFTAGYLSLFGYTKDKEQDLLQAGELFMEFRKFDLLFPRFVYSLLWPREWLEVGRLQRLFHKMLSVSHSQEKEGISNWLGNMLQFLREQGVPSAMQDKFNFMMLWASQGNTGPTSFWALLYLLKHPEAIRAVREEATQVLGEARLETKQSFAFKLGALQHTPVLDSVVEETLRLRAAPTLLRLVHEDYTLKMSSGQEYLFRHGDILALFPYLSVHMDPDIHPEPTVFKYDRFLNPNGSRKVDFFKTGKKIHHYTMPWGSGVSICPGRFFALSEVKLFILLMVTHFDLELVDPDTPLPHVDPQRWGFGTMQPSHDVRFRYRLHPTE

SMILES	IC50 [nM]
C[C@@H]1CN(c2c(C#N)cnc3ccc(Cl)cc23)CCN1C(=O)N1CCn2c(nnc2C(F)(F)F)C1 [Example 128, 6-chloro-4-[(3R)-3-methyl-4-{[3-(trifluoromethyl)-5,6-dihydro[1,2,4]triazolo[4,3-a]pyrazin-7(8H)-yl]carbonyl}piperazin-1-yl]quinoline-3-carbonitrile]	2.9
COc1cccc2c(N3CC[C@H](C(=O)N4CCn5c(nnc5C(F)(F)F)C4)[C@H](C)C3)c(C#N)cnc12 [Example 11, 8-methoxy-4-[(3S,4S)-3-methyl-4-{[3-(trifluoromethyl)-5,6-dihydro[1,2,4]triazolo[4,3-a]pyrazin-7(8H)-yl]carbonyl}piperidin-1-yl]quinoline-3-carbonitrile]	2.5
CO[C@H]1CN(c2c(C#N)cnc3ccc(Cl)cc23)CC[C@H]1C(=O)N1CCn2c(nnc2C(F)(F)F)C1 [Example 72c, 6-chloro-4-[(3R,4R)-3-methoxy-4-{[3-(trifluoromethyl)-5,6-dihydro[1,2,4]triazolo[4,3-a]pyrazin-7(8H)-yl]carbonyl}piperidin-1-yl]quinoline-3-carbonitrile]	2210
Cc1nc2ccc(C3CC3)cc2c(N2CCC(C(=O)N3CCn4c(nnc4C(F)(F)F)C3)CC2)c1C#N [Example 53, 6-cyclopropyl-2-methyl-4-(4-(3-(trifluoromethyl)-5,6,7,8-tetrahydro-[1,2,4]triazolo[4,3-a]pyrazine-7-carbonyl)piperidin-1-yl)quinoline-3-carbonitrile]	76
CC1(C)CN(C(=O)C2CCN(c3c(C#N)cnc4ccc(Cl)cc34)CC2)Cc2nnc(C(F)(F)F)n21 [Example 109, 6-chloro-4-(4-{[5,5-dimethyl-3-(trifluoromethyl)-5,6-dihydro[1,2,4]triazolo[4,3-a]pyrazin-7(8H)-yl]carbonyl}piperidin-1-yl)quinoline-3-carbonitrile]	375
COc1nc2ccc(Cl)cc2c(N2CCC(C(=O)N3CCn4c(nnc4C(F)(F)F)C3)C(C)C2)c1C#N (stereo not shown) [Example 126, 6-chloro-2-methoxy-4-(3-methyl-4-{[3-(trifluoromethyl)-5,6-dihydro[1,2,4]triazolo[4,3-a]pyrazin-7(8H)-yl]carbonyl}piperidin-1-yl)quinoline-3-carbonitrile]	210
C[C@@H]1CN(c2c(C#N)cnc3cc(F)ccc23)CC[C@@H]1C(=O)N1CCn2c(nnc2C(F)(F)F)C1 [Example 6, 7-fluoro-4-[(3S,4S)-3-methyl-4-{[3-(trifluoromethyl)-5,6-dihydro[1,2,4]triazolo[4,3-a]pyrazin-7(8H)-yl]carbonyl}piperidin-1-yl]quinoline-3-carbonitrile]	2.1
N#Cc1cnc2ccc(Cl)cc2c1N1CCC(C(=O)N2CCn3cnnc3C2)CC1 [Example 110, 6-chloro-4-[4-(5,6-dihydro[1,2,4]triazolo[4,3-a]pyrazin-7(8H)-ylcarbonyl)piperidin-1-yl]quinoline-3-carbonitrile]	181
N#Cc1cnc2cc(C(F)(F)F)ccc2c1N1CCC(C(=O)N2CCn3c(nnc3C(F)(F)F)C2)CC1 [Example 43, 7-(trifluoromethyl)-4-(4-{[3-(trifluoromethyl)-5,6-dihydro[1,2,4]triazolo[4,3-a]pyrazin-7(8H)-yl]carbonyl}piperidin-1-yl)quinoline-3-carbonitrile]	6.3
C[C@@H]1CN(c2c(C#N)cnc3c(C(F)F)cc(Cl)cc23)CC[C@@H]1C(=O)N1CCn2c(nnc2C(F)(F)F)C1 [Example 3, 6-chloro-8-(difluoromethyl)-4-[(3S,4S)-3-methyl-4-{[3-(trifluoromethyl)-5,6-dihydro[1,2,4]triazolo[4,3-a]pyrazin-7(8H)-yl]carbonyl}piperidin-1-yl]quinoline-3-carbonitrile]	21
C[C@@H]1CN(c2c(C#N)c(CO)nc3ccc(Cl)cc23)CC[C@@H]1C(=O)N1CCn2c(nnc2C(F)(F)F)C1 [Example 61, 6-chloro-2-(hydroxymethyl)-4-[(3S,4S)-3-methyl-4-{[3-(trifluoromethyl)-5,6-dihydro[1,2,4]triazolo[4,3-a]pyrazin-7(8H)-yl]carbonyl}piperidin-1-yl]quinoline-3-carbonitrile]	4.5
N#Cc1cnc2ccc(Cl)cc2c1N1CC[C@]2(C(=O)N3CCn4c(nnc4C(F)(F)F)C3)C[C@@H]2C1 (single isomer, unassigned) [Example 81a]	1290
Cc1nc2c(F)cc(F)cc2c(N2CC[C@H](C(=O)N3CCn4c(nnc4C(F)(F)F)C3)[C@H](C)C2)c1C#N [Example 10, 6,8-difluoro-2-methyl-4-[(3S,4S)-3-methyl-4-{[3-(trifluoromethyl)-5,6-dihydro[1,2,4]triazolo[4,3-a]pyrazin-7(8H)-yl]carbonyl}piperidin-1-yl]quinoline-3-carbonitrile]	2.8
CC1CN(C(=O)C2CCN(c3c(C#N)cnc4ccc(Cl)cc34)CC2)Cc2nnc(C(F)(F)F)n21 (stereo not shown) [Example 112, 6-chloro-4-(4-{[5-methyl-3-(trifluoromethyl)-5,6-dihydro[1,2,4]triazolo[4,3-a]pyrazin-7(8H)-yl]carbonyl}piperidin-1-yl)quinoline-3-carbonitrile]	69.7

Stronger by IC50, values ahead:

IC50 [nM]	SMILES
1.3	C[C@@H]1CN(c2c(C#N)cnc3cccnc23)CC[C@@H]1C(=O)N1CCn2c(nnc2C(F)(F)F)C1 [Example 33, 4-[(3S,4S)-3-methyl-4-{[3-(trifluoromethyl)-5,6-dihydro[1,2,4]triazolo[4,3-a]pyrazin-7(8H)-yl]carobnyl}piperidin-1-yl]-1,5-naphthyridine-3-carbonitrile]
1.1	C[C@@H]1CN(c2c(C#N)cnc3cc(OC(F)F)ccc23)CC[C@@H]1C(=O)N1CCn2c(nnc2C(F)(F)F)C1 [Example 62, 7-(difluoromethoxy)-4-[(3S,4S)-3-methyl-4-{[3-(trifluoromethyl)-5,6-dihydro[1,2,4]triazolo[4,3-a]pyrazin-7(8H)-yl]carbonyl}piperidin-1-yl]quinoline-3-carbonitrile]
0.96	COc1ccc2c(N3CC[C@H](C(=O)N4CCn5c(nnc5C(F)(F)F)C4)[C@H](C)C3)c(C#N)cnc2c1F [Example 2, 8-fluoro-7-methoxy-4-[(3S,4S)-3-methyl-4-{[3-(trifluoromethyl)-5,6-dihydro[1,2,4]triazolo[4,3-a]pyrazin-7(8H)-yl]carbonyl}piperidin-1-yl]quinoline-3-carbonitrile]
0.74	C[C@@H]1CN(c2c(C#N)cnc3cc(Cl)ccc23)CC[C@@H]1C(=O)N1CCn2c(nnc2C(F)(F)F)C1 [Example 27, 7-chloro-4-[(3S,4S)-3-methyl-4-{[3-(trifluoromethyl)-5,6-dihydro[1,2,4]triazolo[4,3-a]pyrazin-7(8H)-yl]carbonyl}piperidin-1-yl]quinoline-3-carbonitrile]
0.61	COc1ccc2c(N3CC[C@H](C(=O)N4CCn5c(nnc5C(F)(F)F)C4)[C@H](C)C3)c(C#N)cnc2c1 [Example 28, 7-methoxy-4-[(3S,4S)-3-methyl-4-{[3-(trifluoromethyl)-5,6-dihdyro[1,2,4]triazolo[4,3-a]pyrazin-7(8H)-yl]carbonyl}piperidin-1-yl]quinoline-3-carbonitrile]
0.53	COc1cc(Cl)cc2c(N3CC[C@H](C(=O)N4CCn5c(nnc5C(F)(F)F)C4)[C@H](C)C3)c(C#N)cnc12 [Example 18, 6-chloro-8-methoxy-4-[(3S,4S)-3-methyl-4-{[3-(trifluoromethyl)-5,6-dihydro[1,2,4]triazolo[4,3-a]pyrazin-7(8H)-yl]carbonyl}piperidin-1-yl]quinoline-3-carbonitrile]
0.51	C[C@@H]1CN(c2c(C#N)cnc3c(F)c(Cl)ccc23)CC[C@@H]1C(=O)N1CCn2c(nnc2C2CC2)C1 [Example 66, 7-chloro-4-{(3S,4S)-4-[(3-cyclopropyl-5,6-dihydro[1,2,4]triazolo[4,3-a]pyrazin-7(8H)-yl)carbonyl]-3-methylpiperidin-1-yl}-8-fluoroquinoline-3-carbonitrile]
0.47	C[C@@H]1CN(c2c(C#N)cnc3c(F)c(Cl)ccc23)CC[C@@H]1C(=O)N1CCn2c(nnc2C(F)(F)F)C1 [Example 1, 7-chloro-8-fluoro-4-[(3S,4S)-3-methyl-4-{[3-(trifluoromethyl)-5,6-dihydro[1,2,4]triazolo[4,3-a]pyrazin-7(8H)-yl]carbonyl}piperidin-1-yl]quinoline-3-carbonitrile]
0.42	CC(C)COc1ccc2c(N3CCC(C(=O)N4CCn5c(nnc5C(F)(F)F)C4)CC3)c(C#N)cnc2c1 [Example 69]
0.4	C[C@@H]1CN(c2c(C#N)cnc3c(F)c(OC(F)F)ccc23)CC[C@@H]1C(=O)N1CCn2c(nnc2C(F)(F)F)C1 [Example 36, 7-(difluoromethoxy)-8-fluoro-4-[(3S,4S)-3-methyl-4-{[3-(trifluoromethyl)-5,6-dihdyro[1,2,4]triazolo[4,3-a]pyrazin-7(8H)-yl]carbonyl}piperidin-1-yl]quinoline-3-carbonitrile]
0.3	C[C@@H]1CN(c2c(C#N)cnc3c(F)cc(C4CCC4)cc23)CC[C@@H]1C(=O)N1CCn2c(nnc2C(F)(F)F)C1 [Example 87, 6-cyclobutyl-8-fluoro-4-((3S,4S)-3-methyl-4-(3-(trifluoromethyl)-5,6,7,8-tetrahydro-[1,2,4]triazolo[4,3-a]pyrazine-7-carbonyl)piperidin-1-yl) quinoline-3-carbonitrile]
